Data from patent publication US20170368176A1 (priority 2014, published 2017).
Values joined by “and” are separate entries in the source; they are usually repeats but may differ in a detail not shown here. Equal entries are not always repeated. “Also recorded” adds a separate entry of the source. Structures can show the parent of a compound that is named as a salt. Where two headings read alike, the source gives them in different places.

Tests used:
[1] = test system: rat cornea; parameters: species or system Sprague-Dawley rats; details: in vivo
[2] = test system: α2-AR; details: cited from earlier work
[3] = test system: peripheral nerve; details: in vivo; cited from earlier work
[4] = test system: human corneal limbal epithelial (HCLE) cells
[5] = in vivo; cited from earlier work
[6] = test system: rats; details: rat, in vivo
[7] = test system: rats; details: rat, in vivo; cited from earlier work
[8] = in vivo; cited from earlier work; remark: listed apart in the source

SMILES: Clc1cccc(Cl)c1N=C1NCCN1 [CLON, clonidine hydrochloride]
- effect of the added agent on the duration of corneal block from TTX (in words) [1]: failed to prolong corneal block
- selectivity for the α2-AR, times less selective than dexmedetomidine [2]: 8 times
- effective concentrations in peripheral nerve [3]: 10 µM

SMILES: Cc1cccc([C@H](C)c2cnc[nH]2)c1C [DMED, (S)-4-[1-(2,3-Dimethylphenyl)ethyl]-3H-imidazole]
- Block0.5 (duration without blink response to 0.5 cm filament) [1]: 0 ± 0 min
- Block2 (duration without blink response to 2 cm filament) [1]: 0 ± 0 min
- Block<6 (duration without blink response to any filament less than 6 cm) [1]: 0 ± 0 min
- corneal anesthesia (in words) [1]: did not produce any degree of corneal anesthesia
- effect of increasing doses of DMED on block (FIG. 4) [1]: do not increase block further
- HCLE cell survival compared to cells not exposed to drug [4]: not reduced
- effective concentrations in peripheral nerve [3]: 2.7 µM
- half-life [5]: approximately 2 hours
- sedation, dose response of DMED (FIG. 4) [6]: sedation results from the higher two doses
- perineural doses that produce undesired sedation [7]: above 6 μg/kg

SMILES: CCCOc1ccc(C(=O)OCCN(CC)CC)cc1N [PPC, Proparacaine hydrochloride]
- animals in which block0.5 occurred [1]: all animals
- Block0.5 (duration without blink response to 0.5 cm filament) ([1]; hydrochloride): 18 ± 6 min
- Block2 (duration without blink response to 2 cm filament) ([1]; hydrochloride): 35 min and 35 ± 10 min
- Block<6 (duration without blink response to any filament less than 6 cm) ([1]; hydrochloride): 54 min and 54 ± 8 min

SMILES: CC[N+](CC)(CC)CC(=O)Nc1c(C)cccc1C.[Br-] [QX-314]
- duration of local anesthesia [8]: approximately 24 h

SMILES: N=C1N[C@@H](O)[C@H]2[C@@H]3OC4(O)OC(C(O)[C@@]2(N1)[C@@H]4O)[C@]3(O)CO (stereo partly drawn) [TTX, Tetrodotoxin]
- Block0.5 duration of corneal block [1]: 12 ± 12.5 min
- Block2 duration of corneal block [1]: 39 ± 22.7 min
- Block < 6 duration of corneal block [1]: 117 ± 19.5 min
- animals in which block0.5 of any duration occurred [1]: 5 of 14
- block<6 durations compared with 15 mM proparacaine [1]: comparable to those from 15 mM proparacaine

SMILES: CCN(c1ccccc1)c1cc(NC)[n+](C)c(C)n1.[Cl-] [ZD7288, 4-(N-Ethyl-N-phenylamino)-1,2 dimethyl-6-(methylamino) pyrimidinium chloride]
- effect of the added agent on the duration of corneal block from TTX (in words) [1]: prolongs the duration of corneal block from TTX

SMILES: CNC[C@H](O)c1ccc(O)c(O)c1 [epinephrine]
- effect of the added agent on the duration of corneal block from TTX (in words) [1]: failed to prolong corneal block

SMILES: CNC[C@H](O)c1cccc(O)c1 [phenylephrine]
- effect of the added agent on the duration of corneal block from TTX (in words) [1]: at low concentrations (but not high concentrations) prolonged the duration of corneal block from TTX; also recorded: greatly prolonged the duration of corneal block by TTX

SMILES: COc1cc2nc(N3CCN(C(=O)c4ccco4)CC3)nc(N)c2cc1OC [prazosin]
- effect of the added agent on the duration of corneal block from TTX (in words) [1]: did not shorten the duration of corneal block from TTX
